“Also recorded” adds a separate entry of the source.
Experiments:
Format in all cases: in vivo
[1] = system: corn seedlings; assay: Guttation on corn seedling leaves (FIG. 4); details: as a function of DFU amounts
Text: FIG. 4 illustrates the results of increased guttation on seedling leaves as a function of DFU amounts.

[2] = system: corn crop; assay: Corn crop yield with DFU combined with nitrogen fertilizer; details: DFU combined with nitrogen fertilizer to the soil vs nitrogen fertilizer alone
Text: Enhanced tissue development in DFU treated corn plants is illustrated by the experiment illustrated in FIG. 15.

[3] = system: corn plants; assay: Root structure of DFU-treated vs untreated corn plants (FIG. 1); details: treated vs untreated corn plant
Text: FIG. 1 is a photograph illustrating root structure of two corn plants, one treated (on right) with DFU, the other untreated (on left); It has been discovered that application of DFU to growing crop plants results in a large increase in the functional capacity of the crop plant root system because of selective root tissue synthesis and development of fine small feeder roots that operate to take up water and minerals from the soil environment. Treatment of crop plant tissue described herein includes exogenous treatment of the crop plants with a DFU solution at a rate of between 0.1 to 10 pints/acre over the crop growth stages or as a preferred rate of 0.5 to 1.5 pints per acre. Preferably, the concentration of the DFU which is applied at the above rates is from stock solutions of 0.001 Molar to 1.0 Molar with a preferred Molarity of 0.001 Molar to 0.05 Molar. FIG. 1 is a photograph of two plants: the plant on the left had no treatment with DFU; the plant on the right hand side was treated with DFU. […] The treated plant on the right hand side of FIG. 1 is in contrast to the thicker deeper roots of the plant on the left hand side which has fewer “root tips” for water and nutrient uptake from the soil. The DFU treated plant on the right has smaller feeder roots for water, mineral, and nutrient uptake from the roots to the shoots.

[4] = system: field corn cultivar DKC 66-96; assay: Field corn yield, nitrogen fertilizer use efficiency (Table 4)
Text: A total of 180 lb of nitrogen fertilizer/acre, with ½ of nitrogen applied at V4 (forth leaf) and ½ at V7 (seventh leaf) as a side dress (3 inches to the side of the plant and 3 inches below the soil surface). The field corn cultivar DKC 66-96 was planted on Feb. 11, 2013 and harvested on Jul. 12, 2013.

[5] = system: corn plant; assay: Soil moisture around feeder roots of corn plants (FIGS. 2, 3); details: DFU-treated (FIG. 3) vs untreated (FIG. 2) corn plant
Text: FIG. 2 is a photograph of a root structure showing dry soil around the roots of a corn plant that has not been treated with DFU; FIG. 3 is a photograph of a root structure showing moist soil around the roots of a corn plant (grown under the same conditions as that of FIG. 2) treated with DFU; It has also been discovered that applying DFU to crop plants causes enhancement of crop plant cellular water and soil moisture around the feeder roots. Compare the feeder root system of FIG. 2 of a plant that has had no DFU applied to it with the feeder root system of FIG. 3 of a plant that has DFU applied to it.

[6] = system: corn seedlings; assay: Sealed barrel water use test with corn seedlings (FIG. 14)
Procedure: It has also been discovered that crops treated with DFU require less water for growing. See the results illustrated in FIG. 14. In two barrels that were sealed at the top, a precise amount of growing medium was added with appropriate fertilizer and a precise amount of water. […] Seven corn seedlings were germinated and grown in the growing medium in each of the barrels for a period of 37 days. At 37 days the fresh weight and dry weights of corn plants were determined. The graph on the right side of […] depicts the combined weight of the water and the plants growing out of the barrels. The graph on the left depicts the average amount of water needed to grow the treated vs the untreated corn, indicating a twenty eight percent savings with the DFU-treated plants contrasted to the untreated plants. The two barrels were constantly weighed electronically.

[7] = system: soybean plants; assay: Soybean yield after DFU seed treatment (Table 2)
Text: As further evidence the increase in crop production as a result of DFU treatment see Table 2 below. Untreated soybean plant yields were 52.5 bushels per acre. The DFU treated soybean plants yielded 111 bushels per acre. This represents an increase in […] of 111 percent.

[8] = system: field corn; assay: Field corn yield, foliar DFU at V4 along with Round-Up herbicide (Table 5); parameters: Yield rep1 / Yield rep2 / Yield rep3 / Yield rep4: unit not given here; details: for Yield Bu/acre: control 209
Text: Table 5 below illustrates the effect of foliar application of DFU applied at V4 (4th leaf stage of crop growth) at either the rate of ½ pt/acre along with the herbicide Round-Up™ herbicides on field corn. Both the control and the treatments also had 0.9 lb of ammonium sulfate applied along with the herbicide and di-formylurea (DFU). The field corn was planted in southern Texas on Mar. 3, 2012, at a population density of 35,000 plants per acre. […] The large difference was in the harvestable yields of the di-formyl urea treated plants over the control which received the herbicide only.

[9] = system: soybean; assay: Soybean yield with DFU and Quadris fungicide (Table 3)
Text: Table 3 below illustrates the increased performance of herbicides and fungicides for crop plants by addition of DFU to the crops. Quadris™ fungicide (product of Syngenta Crop Protection, Inc.) was applied at the R1 stage of growth and gave a yield increase of 15 bushels per acre. DFU by itself increased soybean yields by 40 bushels per acre. DFU and Quadris applied together increased the yields by 52 bushels.

[10] = system: corn plant; assay: Internodal stalk volume of corn plants (Table 1)
Procedure: It has also been discovered that DFU treatment of corn plants increases the inter-nodal volume of corn plants. Table 1 below confirms that discovery where intermodal stalk volumes of untreated corn crop plants was calculated to be 311.71 cc per plant whereas the inter-nodal stalk volumes of the DFU-treated corn plant was 355.47, an increase of 14% over the control plant.

[11] = system: corn plants; assay: Survival of corn plants in a flooded field (FIGS. 5-13); details: corn field flooded by excessive rain; in furrow DFU
Text: The method of applying DFU to crop plants, which has been covered by natural rain or other types of flooding is a distinctive enhanced feature of DFU treatment of crop plants to ameliorate damaging effects of field soil excessive moisture such as flooding. The most efficacious method of DFU treatment for this feature is that of an “in furrow” application into the open soil furrow at time of crop seed sowing with a spray of DFU at a dose of one to one and a half pints per acre over the seed and unto the soil of the open furrow before closure of the open furrow and application of pressure to the closed furrow for optimal soil contact with the seed. […] DFU is preferably sprayed at a dose of 1 pint per acre to 1½ pints per acre over the seed and onto the soil of the open furrow before closure of the open furrow and application of pressure to the closed furrow for optional soil contact with the seed. FIG. 5 is a photograph of a corn field completely flooded by excessive rain. FIGS. 6 and 7 show corn plants treated with DFU after the excessive water has retreated somewhat. The corn plants are seen to be growing. […] FIG. 9 is a photograph of a corn field which has not been treated with DFU, but after flooding, has been almost completely killed because of the water. FIG. 10 is a close-up photo of corn that has been killed because of flooding. […]

[12] = field corn, seed treat 2 oz/cwt, V4 ½ pt, V9 1 pt
[13] = soybean, seed treatment 2 oz DFU/cwt of seed
[14] = soybean yield, DFU 1 pt/acre, Quadris recommended rate

With `O=CNC(=O)NC=O` [DFU, diformylurea] the “guttation of water on plant leaves” value [1] was “increases guttation”, the “yield of the corn crop” value [2] was “significantly enhances yield” and the “fine small feeder root system development” value [3] was “significantly greater fine small feeder root system development”. For the same molecule, the “Rep 1 Yield” value [4, 12] was 175.5, the “Rep2 Yield” value [4, 12] was 188 and the “Rep3 Yield” value [4, 12] was 178.7. The “Rep4 Yield” value [4, 12] was 185.1, the “Average Yield bu per acre” value ([4]; field corn, seed treat 2 oz/cwt, V4 ½ pt, V9 1 pt, 180 lb nitrogen fertilizer/acre, control 112.6) was 180.6 bu per acre and the “increase in efficiency of use of the available nitrogen mineral fertilizer” value ([4]; harvested yield vs untreated control) was 60.7%. For the same molecule, the “soil moisture around the root system” value [5] was “Much more moist soil”, the “savings in average amount of water needed to grow corn” value ([6]; 0.0015% solution of DFU, 37 days, vs untreated) was “twenty eight” and the “enhanced water use efficiency” value ([6]; crop plants treated with DFU) was “up to 28%”. For the same molecule, the “increase in water use efficiency” value ([7]; soybean yield vs untreated 52.5 bushels per acre) was 111%, the “Rep 1 Yield” value [7, 13] was 109 and the “Rep2 Yield” value [7, 13] was 112. The “Rep3 Yield” value [7, 13] was 111, the “Rep4 Yield” value [7, 13] was 112 and the “Average Yield bu per acre” value ([7]; soybean, seed treatment 2 oz DFU/cwt of seed, control 52.5) was 111 bu per acre. The soybean plant yield ([7]; untreated 52.5) was 111 bushels per acre, the Yield % increase ([8]; V4 foliar 1 pt/acre) was 21.5% and the “Yield increase bu/acre vs control” value ([8]; V4 foliar 1 pt/acre) was 45 bu/acre. For the same molecule, the “Yield rep1” value ([8]; V4 foliar 1 pt/acre) was 246, the “Yield rep2” value ([8]; V4 foliar 1 pt/acre) was 251 and the “Yield rep3” value ([8]; V4 foliar 1 pt/acre) was 256. For the same molecule, the “Yield rep4” value ([8]; V4 foliar 1 pt/acre) was 264, the “Yield Bu/acre” value ([8]; V4 foliar 1 pt/acre with Round-Up and ammonium sulfate) was 254 Bu/acre and the Yield % increase ([8]; V4 foliar ½ pt/acre) was 13.9%. The “Yield increase bu/acre vs control” value ([8]; V4 foliar ½ pt/acre) was 29 bu/acre, the “Yield rep1” value ([8]; V4 foliar ½ pt/acre) was 227 and the “Yield rep2” value ([8]; V4 foliar ½ pt/acre) was 232. For the same molecule, the “Yield rep3” value ([8]; V4 foliar ½ pt/acre) was 224, the “Yield rep4” value ([8]; V4 foliar ½ pt/acre) was 237 and the “Yield Bu/acre” value ([8]; V4 foliar ½ pt/acre with Round-Up and ammonium sulfate) was 230 Bu/acre. For the same molecule, the “Soybean Yield Bu/acre” value ([9]; DFU @ 1 pt/acre, Quadris @ recommended rate at R1, control 55.0) was 95.1 Bu/acre, the “Rep 1” value [9, 14] was 92.7 and the “Rep 2” value [9, 14] was 95.8. The “Rep 3” value [9, 14] was 89.9, the “Rep 4” value [9, 14] was 102 and the soybean yield increase ([9]; vs control) was 40 bushels per acre. For the same molecule, the “Internodal Volume (cc)” value ([10]; Growth Stage V1) was 33.49 cc, the “Internodal Volume (cc)” value ([10]; Growth Stage V2) was 45.02 cc and the “Internodal Volume (cc)” value ([10]; Growth Stage V3) was 55.76 cc. For the same molecule, the “Internodal Volume (cc)” value ([10]; Growth Stage V4) was 59.14 cc, the “Internodal Volume (cc)” value ([10]; Growth Stage V5) was 54.34 cc and the “Internodal Volume (cc)” value ([10]; Growth Stage V6) was 47.79 cc. For the same molecule, the “Internodal Volume (cc)” value ([10]; Growth Stage V7) was 35.02 cc, the “Internodal Volume (cc)” value ([10]; Growth Stage V8) was 24.9 cc and the “inter-nodal stalk volumes per plant” value ([10]; calculated total, untreated 311.71) was 355.47 cc per plant. For the same molecule, the “increase of inter-nodal stalk volume over the control plant” value ([10]; vs untreated corn plant) was 14% and the “survival of plants in flooded field” value [11] was “prevents drowning of the plants; also recorded: survived the flood”.

Source: patent publication US20150150261A1, “METHODS FOR APPLYING DIFORMYLUREA TO CROPS FOR GREATER PLANT PRODUCTIVITY” (Stoller Enterprises, Inc., priority 2013, published 2015)
